In patent US20070142392A1, “Uses of rifamycins” (ActivBiotics, Inc., priority 2005, published 2007):
Values after ≈ are worked out from the molar mass of the structure shown.

Key:
Type in all cases: cell-based
S. pneumo. = assay: MIC values, S. pneumo. (Tables 1-4)
E. coli = assay: MIC values, E. coli (Tables 1-4)
S. aureus = assay: MIC values, S. aureus (Tables 1-4)
E. faecalis = assay: MIC values, E. faecalis (Tables 1-4)
H. flu = system: H. flu

SMILES | MIC S. pneumo. (S. pneumo.) | MIC E. coli (E. coli) | MIC S. aureus (S. aureus) | MIC E. faecalis (E. faecalis) | MIC H. flu (H. flu)
CO[C@H]1/C=C/O[C@@]2(C)Oc3c(C)c(O)c4c(=O)c(c5oc6cc(N7C[C@@H]8CCCN(C)[C@@H]8C7)cc(O)c6nc-5c4c3C2=O)NC(=O)/C(C)=C\C=C\[C@H](C)[C@H](O)[C@@H](C)[C@@H](O)[C@@H](C)[C@H](OC(C)=O)[C@@H]1C [Compound 58] | 0.004 µg/mL (≈ 0.00426 µM) | >8 µg/mL | 0.03 µg/mL (≈ 0.0319 µM) | 1 µg/mL (≈ 1.06 µM) | 0.25 µg/mL (≈ 0.266 µM)
CO[C@H]1/C=C/O[C@@]2(C)Oc3c(C)c(O)c4c(=O)c(c5oc6cc(N7C[C@@H]8CCCN(C)[C@@H]8C7)cc(O)c6nc-5c4c3C2=O)NC(=O)/C(C)=C\C=C\[C@H](C)[C@H](O)[C@@H](C)[C@@H](O)[C@@H](C)[C@H](O)[C@@H]1C [Compound 59] | 0.001 µg/mL (≈ 0.00111 µM) | 4 µg/mL (≈ 4.46 µM) | 0.004 µg/mL (≈ 0.00446 µM) | 0.06 µg/mL (≈ 0.0669 µM) | 0.12 µg/mL (≈ 0.134 µM)
CCOC(=O)NCC1CCN(c2cc(O)c3nc4c5c6c7c(C)c(O)c5c(=O)c(c-4oc3c2)NC(=O)/C(C)=C\C=C\[C@H](C)[C@H](O)[C@@H](C)[C@@H](O)[C@@H](C)[C@H](O)[C@H](C)[C@@H](OC)/C=C/O[C@@](C)(O7)C6=O)CC1 [Compound 60] | 0.0005 µg/mL (≈ 0.00053 µM) | >8 µg/mL | 0.008 µg/mL (≈ 0.00848 µM) | 0.5 µg/mL (≈ 0.53 µM) | 0.06 µg/mL (≈ 0.0636 µM)
CO[C@H]1/C=C/O[C@@]2(C)Oc3c(C)c(O)c4c(=O)c(c5oc6cc(N7CCC(CCO)CC7)cc(O)c6nc-5c4c3C2=O)NC(=O)/C(C)=C\C=C\[C@H](C)[C@H](O)[C@@H](C)[C@@H](O)[C@@H](C)[C@H](OC(C)=O)[C@@H]1C [Compound 61] | 0.00012 µg/mL (≈ 0.000129 µM) | >8 µg/mL | 0.004 µg/mL (≈ 0.00431 µM) | 1 µg/mL (≈ 1.08 µM) | 0.25 µg/mL (≈ 0.269 µM)
CO[C@H]1/C=C/O[C@@]2(C)Oc3c(C)c(O)c4c(=O)c(c5oc6cc(N7CCC(c8ccccc8)CC7)cc(O)c6nc-5c4c3C2=O)NC(=O)/C(C)=C\C=C\[C@H](C)[C@H](O)[C@@H](C)[C@@H](O)[C@@H](C)[C@H](O)[C@@H]1C [Compound 62] | 0.008 µg/mL (≈ 0.00871 µM) | >8 µg/mL | 0.015 µg/mL (≈ 0.0163 µM) | 8 µg/mL (≈ 8.71 µM) | 0.5 µg/mL (≈ 0.545 µM)
COCCOC(=O)NC1CCN(c2cc(O)c3nc4c5c6c7c(C)c(O)c5c(=O)c(c-4oc3c2)NC(=O)/C(C)=C\C=C\[C@H](C)[C@H](O)[C@@H](C)[C@@H](O)[C@@H](C)[C@H](O)[C@H](C)[C@@H](OC)/C=C/O[C@@](C)(O7)C6=O)CC1 [Compound 63] | 0.002 µg/mL (≈ 0.00209 µM) | 8 µg/mL (≈ 8.34 µM) | 0.008 µg/mL (≈ 0.00834 µM) | 1 µg/mL (≈ 1.04 µM) | 0.25 µg/mL (≈ 0.261 µM)
CO[C@H]1/C=C/O[C@@]2(C)Oc3c(C)c(O)c4c(=O)c(c5sc6cc(N7C[C@@H](C)N[C@@H](C)C7)ccc6nc-5c4c3C2=O)NC(=O)/C(C)=C\C=C\[C@H](C)[C@H](O)[C@@H](C)[C@@H](O)[C@@H](C)[C@H](OC(C)=O)[C@@H]1C [Compound 64] | 0.00012 µg/mL (≈ 0.000131 µM) | 4 µg/mL (≈ 4.38 µM) | 0.004 µg/mL (≈ 0.00438 µM) | 0.12 µg/mL (≈ 0.131 µM) | 0.25 µg/mL (≈ 0.274 µM)
CO[C@H]1/C=C/O[C@@]2(C)Oc3c(C)c(O)c4c(=O)c(c5sc6cc(N7C[C@@H](C)N[C@@H](C)C7)ccc6nc-5c4c3C2=O)NC(=O)/C(C)=C\C=C\[C@H](C)[C@H](O)[C@@H](C)[C@@H](O)[C@@H](C)[C@H](O)[C@@H]1C [Compound 65] | 0.00025 µg/mL (≈ 0.000287 µM) | 2 µg/mL (≈ 2.3 µM) | 0.002 µg/mL (≈ 0.0023 µM) | 0.12 µg/mL (≈ 0.138 µM) | 0.12 µg/mL (≈ 0.138 µM)
CO[C@H]1/C=C/O[C@@]2(C)Oc3c(C)c(O)c4c(=O)c(c5oc6cc(N7CCC(CCO)CC7)cc(O)c6nc-5c4c3C2=O)NC(=O)/C(C)=C\C=C\[C@H](C)[C@H](O)[C@@H](C)[C@@H](O)[C@@H](C)[C@H](O)[C@@H]1C [Compound 66] | 0.0005 µg/mL (≈ 0.000564 µM) | 4 µg/mL (≈ 4.51 µM) | 0.004 µg/mL (≈ 0.00451 µM) | 0.12 µg/mL (≈ 0.135 µM) | 0.12 µg/mL (≈ 0.135 µM)
CCCS(=O)(=O)NC1CCN(c2cc(O)c3nc4c5c6c7c(C)c(O)c5c(=O)c(c-4oc3c2)NC(=O)/C(C)=C\C=C\[C@H](C)[C@H](O)[C@@H](C)[C@@H](O)[C@@H](C)[C@H](O)[C@H](C)[C@@H](OC)/C=C/O[C@@](C)(O7)C6=O)CC1 [Compound 67] | 0.001 µg/mL (≈ 0.00104 µM) | >8 µg/mL | 0.008 µg/mL (≈ 0.00831 µM) | 0.5 µg/mL (≈ 0.519 µM) | 0.12 µg/mL (≈ 0.125 µM)
COC1C=COC2(C)Oc3c(C)c(O)c4c(=O)c(c5sc6cc(N7CC(C)N(CC8CC8)CC7C)ccc6nc-5c4c3C2=O)NC(=O)C(C)=CC=CC(C)C(O)C(C)C(O)C(C)C(OC(C)=O)C1C (centres unmarked) [Compound 68] | 0.0005 µg/mL (≈ 0.000517 µM) | >8 µg/mL | 0.06 µg/mL (≈ 0.062 µM) | 2 µg/mL (≈ 2.07 µM) | 0.5 µg/mL (≈ 0.517 µM)
CO[C@H]1/C=C/O[C@@]2(C)Oc3c(C)c(O)c4c(=O)c(c5sc6cc(N7CCC(N(C)C)CC7)ccc6nc-5c4c3C2=O)NC(=O)/C(C)=C\C=C\[C@H](C)[C@H](O)[C@@H](C)[C@@H](O)[C@@H](C)[C@H](OC(C)=O)[C@@H]1C [Compound 69] | 0.00025 µg/mL (≈ 0.00027 µM) | 4 µg/mL (≈ 4.31 µM) | 0.015 µg/mL (≈ 0.0162 µM) | 0.5 µg/mL (≈ 0.539 µM) | 0.5 µg/mL (≈ 0.539 µM)
COC1C=COC2(C)Oc3c(C)c(O)c4c(=O)c(c5sc6cc(N7CC(C)N(CC8CC8)CC7C)ccc6nc-5c4c3C2=O)NC(=O)C(C)=CC=CC(C)C(O)C(C)C(O)C(C)C(O)C1C (centres unmarked) [Compound 70] | 0.001 µg/mL (≈ 0.00108 µM) | >8 µg/mL | 0.03 µg/mL (≈ 0.0324 µM) | 1 µg/mL (≈ 1.08 µM) | 1 µg/mL (≈ 1.08 µM)
CO[C@H]1/C=C/O[C@@]2(C)Oc3c(C)c(O)c4c(=O)c(c5oc6cc(N7CCC(C)(N(C)C)CC7)cc(O)c6nc-5c4c3C2=O)NC(=O)/C(C)=C\C=C\[C@H](C)[C@H](O)[C@@H](C)[C@@H](O)[C@@H](C)[C@H](OC(C)=O)[C@@H]1C [Compound 71] | 0.00012 µg/mL (≈ 0.000128 µM) | 4 µg/mL (≈ 4.25 µM) | 0.008 µg/mL (≈ 0.0085 µM) | 0.25 µg/mL (≈ 0.266 µM) | 0.5 µg/mL (≈ 0.531 µM)
CO[C@H]1/C=C/O[C@@]2(C)Oc3c(C)c(O)c4c(=O)c(c5oc6cc(N7CCC(C)(NC(C)=O)CC7)cc(O)c6nc-5c4c3C2=O)NC(=O)/C(C)=C\C=C\[C@H](C)[C@H](O)[C@@H](C)[C@@H](O)[C@@H](C)[C@H](OC(C)=O)[C@@H]1C [Compound 72] | 0.00025 µg/mL (≈ 0.000262 µM) | >8 µg/mL | 0.008 µg/mL (≈ 0.00838 µM) | 2 µg/mL (≈ 2.09 µM) | 0.5 µg/mL (≈ 0.524 µM)
CO[C@H]1/C=C/O[C@@]2(C)Oc3c(C)c(O)c4c(=O)c(c5oc6cc(N7CCC(C)(N(C)C)CC7)cc(O)c6nc-5c4c3C2=O)NC(=O)/C(C)=C\C=C\[C@H](C)[C@H](O)[C@@H](C)[C@@H](O)[C@@H](C)[C@H](O)[C@@H]1C [Compound 73] | 0.00025 µg/mL (≈ 0.000278 µM) | 2 µg/mL (≈ 2.22 µM) | 0.002 µg/mL (≈ 0.00222 µM) | 0.03 µg/mL (≈ 0.0334 µM) | 0.12 µg/mL (≈ 0.133 µM)
CO[C@H]1/C=C/O[C@@]2(C)Oc3c(C)c(O)c4c(=O)c(c5oc6cc(N7CCC(C)(NC(C)=O)CC7)cc(O)c6nc-5c4c3C2=O)NC(=O)/C(C)=C\C=C\[C@H](C)[C@H](O)[C@@H](C)[C@@H](O)[C@@H](C)[C@H](O)[C@@H]1C [Compound 74] | 0.001 µg/mL (≈ 0.0011 µM) | >8 µg/mL | 0.03 µg/mL (≈ 0.0329 µM) | 0.5 µg/mL (≈ 0.548 µM) | 0.12 µg/mL (≈ 0.131 µM)
CO[C@H]1/C=C/O[C@@]2(C)Oc3c(C)c(O)c4c(=O)c(c5oc6cc(N7CC[C@@H](N(C)C)C7)cc(O)c6nc-5c4c3C2=O)NC(=O)/C(C)=C\C=C\[C@H](C)[C@H](O)[C@@H](C)[C@@H](O)[C@@H](C)[C@H](OC(C)=O)[C@@H]1C [Compound 75] | 0.00012 µg/mL (≈ 0.000131 µM) | 4 µg/mL (≈ 4.38 µM) | 0.002 µg/mL (≈ 0.00219 µM) | 0.12 µg/mL (≈ 0.131 µM) | 0.25 µg/mL (≈ 0.274 µM)
COC1C=COC2(C)Oc3c(C)c(O)c4c(=O)c(c5sc6cc(N7CCN8CCCC8C7)ccc6nc-5c4c3C2=O)NC(=O)C(C)=CC=CC(C)C(O)C(C)C(O)C(C)C(OC(C)=O)C1C (centres unmarked) [Compound 76] | 0.00025 µg/mL (≈ 0.00027 µM) | 4 µg/mL (≈ 4.32 µM) | 0.008 µg/mL (≈ 0.00865 µM) | 0.5 µg/mL (≈ 0.54 µM) | 0.25 µg/mL (≈ 0.27 µM)
COC1C=COC2(C)Oc3c(C)c(O)c4c(=O)c(c5sc6cc(N7CCN8CCCC8C7)ccc6nc-5c4c3C2=O)NC(=O)C(C)=CC=CC(C)C(O)C(C)C(O)C(C)C(O)C1C (centres unmarked) [Compound 77] | 0.00025 µg/mL (≈ 0.000283 µM) | 2 µg/mL (≈ 2.26 µM) | 0.002 µg/mL (≈ 0.00226 µM) | 0.25 µg/mL (≈ 0.283 µM) | 0.12 µg/mL (≈ 0.136 µM)
COC1C=COC2(C)Oc3c(C)c(O)c4c(=O)c(c5oc6cc(N7CCN8CCCC8C7)cc(O)c6nc-5c4c3C2=O)NC(=O)C(C)=CC=CC(C)C(O)C(C)C(O)C(C)C(O)C1C (centres unmarked) [Compound 87] | 0.00025 µg/mL (≈ 0.000283 µM) | 4 µg/mL (≈ 4.53 µM) | 0.002 µg/mL (≈ 0.00226 µM) | 0.03 µg/mL (≈ 0.034 µM) | 0.25 µg/mL (≈ 0.283 µM)
COC1C=COC2(C)Oc3c(C)c(O)c4c(=O)c(c5oc6cc(N7CCN8CCCC8C7)cc(O)c6nc-5c4c3C2=O)NC(=O)C(C)=CC=CC(C)C(O)C(C)C(O)C(C)C(O)C1C (centres unmarked) [Compound 88] | 0.00025 µg/mL (≈ 0.000283 µM) | 8 µg/mL (≈ 9.06 µM) | 0.004 µg/mL (≈ 0.00453 µM) | 0.03 µg/mL (≈ 0.034 µM) | 0.25 µg/mL (≈ 0.283 µM)
